From patent US12180222B2, “Crystal forms of thiophene derivatives” (Tianjin Hemay Pharmaceutical Co., Ltd, priority 2018, dated 2024)

Legend:
Type in all cases: physicochemical
[1] = Moisture absorption stability / hygroscopicity (RH=80%); conditions: RH=80% (saturated ammonium chloride solution) until weight balanced
Experimental: Moisture absorption of crystal form III of (S)—N-[5-[1-(3-ethoxy-4-methoxyphenyl)-2-(methylsulfonyl)ethyl]-4,6-dioxo-5,6-dihydro-4H-thieno[3,4-c]pyrrole-1-yl]acetamide was studied. Crystal form III of (S)—N-[5-[1-(3-ethoxy-4-methoxyphenyl)-2-(methylsulfonyl)ethyl]-4,6-dioxo-5,6-dihydro-4H-thieno[3,4-c]pyrrole-1-yl]acetamide was placed in a drier containing saturated ammonium chloride solution (RH=80%) until weight was balanced. The crystal form was tested with XRPD.
Crystal form III of (S)—N-[5-[1-(3-ethoxy-4-methoxyphenyl)-2-(methylsulfonyl)ethyl]-4,6-dioxo-5,6-dihydro-4H-thieno[3,4-c]pyrrole-1-yl]acetamide prepared according to the process of Example 1 was tested.

[2] = High temperature stability (sealed oven at 40° C., liquid chromatogram and DSC)
Experimental: (§1) Crystal form III of (S)—N-[5-[1-(3-ethoxy-4-methoxyphenyl)-2-(methylsulfonyl)ethyl]-4,6-dioxo-5,6-dihydro-4H-thieno[3,4-c]pyrrole-1-yl]acetamide prepared according to the process of Example 1 was placed in a sealed oven at 40° C. After 1 month, liquid chromatogram and DSC were tested.

[3] = Accelerated stability (40° C. and Rh=75%, liquid chromatogram and DSC)
Experimental: as §1, with “stability text box” for “sealed oven”, “C. and Rh=75%.” for “C.”

[4] = Dissolution rate of crystal form in water; conditions: about 25 mg in 900 mL water, 37° C., rotating speed 100/minute
Experimental: The crystal form III of (S)—N-[5-[l-(3-ethoxy-4-methoxyphenyl)-2-(methylsulfonyl)ethyl]-4,6-dioxo-5,6-dihydro-4H-thieno[3,4-c]pyrrole-1-yl]acetamide prepared according to the process in Example 1 was tested.
About 25 mg of crystal form III of (S)—N-[5-[1-(3-ethoxy-4-methoxyphenyl)-2-(methylsulfonyl)ethyl]-4,6-dioxo-5,6-dihydro-4H-thieno[3,4-c]pyrrole-1-yl]acetamide was added to 900 mL of water. The mixture was stirred at a rotating speed of 100/minute at 37° C. for 90 minutes. The supernatant was filtered and diluted. The concentration of the diluted solution (a mg/mL) was determined by ultraviolet spectrophotometer. The dissolution rate was calculated according to the formula 900a/25×100%.

[5] = Aqueous solution balance stability (crystal form by XRPD after equilibrium in water); conditions: 37° C., 24 hours
Experimental: About 0.5 g of crystal form III of (S)—N-[5-[1-(3-ethoxy-4-methoxyphenyl)-2-(methylsulfonyl)ethyl]-4,6-dioxo-5,6-dihydro-4H-thieno[3,4-c]pyrrole-1-yl]acetamide was added to 40 mL of water. The mixture was stirred at 37° C. for 24 hours. The suspension was filtered. After wet solid was dried, crystal form of powders was tested with X-ray powder diffraction (XRPD).

Moisture Absorption %) [1]: 1.17% | Weight Increase ([1]; mAPI 0.511 g): 0.006 g | stability under high temperature conditions ([2]; 40° C., 1 month): good stability | Relevant Substance Contents at Day 0 (%) ([2]; Day 0, before storage at 40° C.): 0.07% | Relevant Substance Contents after 1 Month (%) ([2]; storage 40° C., sealed oven, 1 month): 0.09% | stability under high-temperature and high-humidity conditions ([3]; 40° C. and Rh=75%, 1 month): good stability | Relevant Substance Contents at Day 0 (%) ([3]; Day 0, before storage at 40° C. RH = 75%): 0.07% | Relevant Substance Contents after 1 Month (%) ([3]; storage 40° C. RH = 75%, 1 month): 0.09% | Dissolution Rate (%) ([4]; time 0 min): 0% | Dissolution Rate (%) ([4]; time 15 min): 32.2% | Dissolution Rate (%) ([4]; time 30 min): 46.3% | Dissolution Rate (%) ([4]; time 45 min): 55.1% | Dissolution Rate (%) ([4]; time 60 min): 61.8% | Dissolution Rate (%) ([4]; time 75 min): 66.5% | Dissolution Rate (%) ([4]; time 90 min): 71.5% | stability in water [5]: good stability
Structure (SMILES): CCOc1cc([C@@H](CS(C)(=O)=O)N2C(=O)c3csc(NC(C)=O)c3C2=O)ccc1OC [Crystal Form III, (S)—N-[5-[1-(3-ethoxy-4-methoxyphenyl)-2-(methylsulfonyl)ethyl]-4,6-dioxo-5,6-dihydro-4H-thieno[3,4-c]pyrrole-1-yl]acetamide]
